ChEMBL document CHEMBL5338790, “Discovery of Subcellular-Targeted Aza-BODIPY Photosensitizers for Efficient Photodynamic Antitumor Therapy” (J Med Chem, 2023)
Active and inactive are the calls of the source. The rule behind the calls is not given here.

What was measured:
HeLa [1] = assay: Antitumor activity against human HeLa cells xenografted in Balb/C nu/nu mouse assessed as tumor growth inhibition at 2.5 umol/kg, iv with photo-irradiation at 30 J/cm2 after 1 hr of compound administration measured for 24 days; format: functional, organism-based; conditions: dose 2.5 µmol/kg, time 24.0 day
HeLa [2] = assay: Induction of apoptosis in human HeLa cells assessed as late apoptotic cells at 100 nM incubated for 3 hrs with photo-irradiation at 54 J/cm2 by Annexin V-FITC/PI staining based flow cytometry relative to control; format: functional
HeLa [3] = assay: Induction of apoptosis in human HeLa cells assessed as viable cells at 12.5 nM incubated for 3 hrs with photo-irradiation at 54 J/cm2 by Annexin V-FITC/PI staining based flow cytometry relative to control; format: functional; conditions: light or radiation study, read-out: Activity
HeLa [4] = assay: Photodynamic cytotoxicity against human HeLa cells assessed as inhibition of cell viability incubated for 3 hrs followed by photo-irradiation at 54 J/cm2 measured after 24 hrs by CCK8 assay; format: functional, cell-based; conditions: light or radiation study
[5] = Drug distribution in lungs of Balb/C nu/nu mouse xenografted with human HeLa cells at 2.5 umol/kg, iv measured for 1 hr by IVIS imaging analysis; format: ADME, organism-based, Lung; conditions: in vivo, dose 2.5 µmol/kg
[6] = Toxicity in Balb/C nu/nu mouse xenografted with human HeLa cells assessed as drug tolerance at 2.5 umol/kg, iv with photo-irradiation at 30 J/cm2 after 1 hr of compound administration measured for 24 days; format: organism-based; conditions: in vivo, 576 h, dose 2.5 µmol/kg, time 24 day
HeLa [7] = assay: Induction of apoptosis in human HeLa cells assessed as early apoptotic cells at 100 nM incubated for 3 hrs with photo-irradiation at 54 J/cm2 by Annexin V-FITC/PI staining based flow cytometry relative to control; format: functional
[8] = Cytotoxicity against HUVEC cells assessed as inhibition of cell viability under dark condition incubated for 27 hrs by CCK8 assay; format: toxicity, cell-based; conditions: human
[9] = Drug concentration in plasma of Balb/C nu/nu mouse xenografted with human HeLa cells at 2.5 umol/kg, iv measured after 24 hr by IVIS imaging analysis; format: ADME, organism-based; conditions: in vivo, at 2.5 µmol/kg
[10] = Drug distribution in Balb/C nu/nu mouse xenografted with human HeLa cells at 2.5 umol/kg, iv measured for 24 hr by IVIS imaging analysis; format: ADME, organism-based; conditions: in vivo, dose 2.5 µmol/kg
[11] = Toxicity in Balb/C nu/nu mouse xenografted with human HeLa cells assessed as change in kidney histology at 2.5 umol/kg, iv with photo-irradiation at 30 J/cm2 after 1 hr of compound administration measured after 24 days by H and E staining based analysis; format: organism-based; conditions: in vivo, 576 h, dose 2.5 µmol/kg, time 24 day
B16-F10 = assay: Photodynamic cytotoxicity against mouse B16-F10 cells assessed as inhibition of cell viability incubated for 3 hrs followed by photo-irradiation at 54 J/cm2 measured after 24 hrs by CCK8 assay; format: functional, cell-based; conditions: B16-F10, light or radiation study
HeLa [12] = assay: Induction of apoptosis in human HeLa cells assessed as necrotic cells at 100 nM incubated for 3 hrs with photo-irradiation at 54 J/cm2 by Annexin V-FITC/PI staining based flow cytometry relative to control; format: functional
[13] = Drug accumulation in tumor of Balb/C nu/nu mouse xenografted with human HeLa cells at 2.5 umol/kg, iv measured for 3 hrs by IVIS imaging analysis; format: ADME, organism-based, Neoplasm; conditions: in vivo, dose 2.5 µmol/kg
[14] = Drug distribution in tumor of Balb/C nu/nu mouse xenografted with human HeLa cells at 2.5 umol/kg, iv measured for 24 hr by IVIS imaging analysis; format: ADME, organism-based, Neoplasm; conditions: in vivo, dose 2.5 µmol/kg
HeLa [15] = assay: Induction of apoptosis in human HeLa cells assessed as increase in percentage of apoptosis/necrosis at 12.5 nM incubated for 3 hrs with photo-irradiation at 54 J/cm2 by Annexin V-FITC/PI staining based flow cytometry relative to control; format: functional
[16] = Drug distribution in heart of Balb/C nu/nu mouse xenografted with human HeLa cells at 2.5 umol/kg, iv measured for 24 hr by IVIS imaging analysis; format: ADME, organism-based; conditions: in vivo, dose 2.5 µmol/kg
[17] = Cytotoxicity against human HepG2 cells assessed as inhibition of cell viability under dark condition incubated for 27 hrs by CCK8 assay; format: toxicity, cell-based
HeLa [18] = assay: Induction of apoptosis in human HeLa cells assessed as late apoptotic cells at 25 nM incubated for 3 hrs with photo-irradiation at 54 J/cm2 by Annexin V-FITC/PI staining based flow cytometry relative to control; format: functional
[19] = Toxicity in Balb/C nu/nu mouse xenografted with human HeLa cells assessed as change in lung histology at 2.5 umol/kg, iv with photo-irradiation at 30 J/cm2 after 1 hr of compound administration measured after 24 days by H and E staining based analysis; format: organism-based; conditions: in vivo, 576 h, dose 2.5 µmol/kg, time 24 day
HeLa [20] = assay: Induction of ROS production in human HeLa cells preincubated for 2 hrs followed by H2DCFDA probe exposure for 30 mins and subsequent removal of probe with photo-irradiation at 16 J/cm2 by confocal scanning microscopic analysis; format: functional, cell-based; conditions: dose <= 200.0 nM, time 2.5 hrs
HeLa [21] = assay: Induction of apoptosis in human HeLa cells assessed as early apoptotic cells at 25 nM incubated for 3 hrs with photo-irradiation at 54 J/cm2 by Annexin V-FITC/PI staining based flow cytometry relative to control; format: functional
HeLa [22] = assay: Induction of apoptosis in human HeLa cells assessed as viable cells at 25 nM incubated for 3 hrs with photo-irradiation at 54 J/cm2 by Annexin V-FITC/PI staining based flow cytometry relative to control; format: functional; conditions: light or radiation study, read-out: Activity
[23] = Cytotoxicity against mouse B16-F10 cells assessed as inhibition of cell viability under dark condition incubated for 27 hrs by CCK8 assay; format: toxicity, cell-based
[24] = Drug localization in endoplasmic reticulum of human HeLa cells at 5 uM incubated for 30 mins by ER-Tracker Green dye based confocal scanning microscopic analysis; format: ADME; conditions: 0.5 h
[25] = Drug distribution in tumor of Balb/C nu/nu mouse xenografted with human HeLa cells at 2.5 umol/kg, iv measured for 1 hr by IVIS imaging analysis; format: ADME, organism-based, Neoplasm; conditions: in vivo, dose 2.5 µmol/kg
[26] = Drug distribution in Balb/C nu/nu mouse xenografted with human HeLa cells at 2.5 umol/kg, iv measured for 1 hr by IVIS imaging analysis; format: ADME, organism-based; conditions: in vivo, dose 2.5 µmol/kg
HeLa [27] = assay: Induction of apoptosis in human HeLa cells assessed as viable cells at 50 nM incubated for 3 hrs with photo-irradiation at 54 J/cm2 by Annexin V-FITC/PI staining based flow cytometry relative to control; format: functional; conditions: light or radiation study, read-out: Activity
[28] = Drug distribution in liver of Balb/C nu/nu mouse xenografted with human HeLa cells at 2.5 umol/kg, iv measured for 1 hr by IVIS imaging analysis; format: ADME, organism-based; conditions: in vivo, dose 2.5 µmol/kg
[29] = Drug uptake in human HeLa cells at 5 uM incubated for 3 hrs by confocal scanning microscopy; format: ADME, cell-based
[30] = Toxicity in Balb/C nu/nu mouse xenografted with human HeLa cells assessed as change in liver histology at 2.5 umol/kg, iv with photo-irradiation at 30 J/cm2 after 1 hr of compound administration measured after 24 days by H and E staining based analysis; format: organism-based; conditions: in vivo, 576 h, dose 2.5 µmol/kg, time 24 day
HeLa [31] = assay: Induction of apoptosis in human HeLa cells assessed as early apoptotic cells at 100 nM incubated for 3 hrs by Annexin V-FITC/PI staining based flow cytometry relative to control; format: toxicity, cell-based; conditions: 0.1 µM

Structure (SMILES): COc1ccc2c(c1)CCc1c(-c3ccccc3)c3n(c1-2)[B-](F)(F)[N+]1=C(c2ccc(OCC(=O)NCCCN4CCOCC4)cc2)C(I)=C(c2ccccc2)C1=N3
- Activity (HeLa [1]): Active
- Activity (HeLa [2]): 16.6%
- viability at 0.0125 µM (HeLa [3]): 88.1%
- IC50 (HeLa [4]): 2.1 nM
- Drug uptake [5]: Active
- Activity [6]: Non-Toxic
- Activity (HeLa [7]): 73.1%
- IC50 at 27 h [8]: > 50000 nM
- Drug uptake [9]: 1%
- Drug uptake [10]: Not Active
- Activity [11]: Non-Toxic
- IC50 (B16-F10): 7.2 nM
- Activity (HeLa [12]): 0.57%
- Drug uptake [13]: Active
- Drug uptake [14]: Not Active
- Activity (HeLa [15]): 10.9%
- Drug uptake [16]: Not Active
- IC50 at 27 h [17]: > 50000 nM
- Activity (HeLa [18]): 12.87%
- Activity [19]: Non-Toxic
- Activity (HeLa [20]): Dose-Dependent Effect
- Activity (HeLa [21]): 36.45%
- viability at 0.025 µM (HeLa [22]): 47%
- IC50 at 27 h [23]: > 50000 nM
- Drug uptake [24]: Not Active
- Drug uptake [25]: Active
- Drug uptake [26]: Active
- viability at 0.05 µM (HeLa [27]): 25.4%
- Drug uptake [28]: Active
- Drug uptake [29]: Active
- Activity [30]: Non-Toxic
- Activity (HeLa [31]): 1.52%
